Test results: patent publication US4444758A, “Nonapeptide for treating addictive drug withdrawal conditions” (priority 1981, dated 1984)
Where no end group is shown, it is not given here.

Columns and labels:
rats [1] = settings: rat, in vivo
Procedure: (§1) Toxicological studies were carried out on 12 male and 12 female rats as well as on 3 male and 3 female dogs per dosage. For this purpose DSIP was dissolved in physiological sodium chloride solution and administered intravenously daily for 4 weeks in the dosages of 0.6, 1.8 and 6 mg/kg. At an interval of 2 weeks during these studies the hematological, hematochemical and the urine status were determined, and the electrocardiogram was recorded and analyzed
(§2) At the termination of the aforementioned studies all animals were painlessly killed and there followed the autopsy besides the removal of organ samples for histological investigations.

dogs [2] = settings: dog, in vivo
Procedure: as §1, §2

dogs [3] = assay: 4-week intravenous toxicological study in dogs
Procedure: as §1, §2

[4] = tested on: alcoholic or methadone- or heroin-dependent patients; settings: human, in vivo
Procedure: Of the 25 alcoholic patients 8 were on admission already in delirium tremens to a medium to severe degrees. After the first subjective and objective withdrawal signs manifested themselves the patients received up to 4 intravenous infusions of in each case 0.0214 mg/kg of DSIP daily. For this purpose, the substance was dissolved in physiological sodium chloride solution and infused in the course of 5 minutes.
The duration of treatment amounted to a maximum of 3 days.

rats [5] = assay: 4-week intravenous toxicological study in rats
Procedure: as §1, §2

morphine-dependent mouse = assay: Inhibition of the naloxone-triggered withdrawal leaps of the morphine-dependent mouse; assay type: in vivo; settings: 30 mg . kg^-1 s.c., positive control
Procedure: In order to produce the dependence a compressed tablet, which contained 75 mg of morphine (base) and which progressively dissolved with continuous liberation of the morphine, was implanted under the dorsal skin of male mice (weight about 22 g). On the third day after the implantation the morphine antagonist naloxone in a dosage of 0.1 mg/kg was administered subcutaneously to the animals in order to trigger off the withdrawal leaps.
After the injection, the leaps of each individual animal were counted for 20 minutes. The group median value was calculated from the total leaps of 8 animals, which formed a group. As the positive control the animals of one group received 30 mg/kg of morphine subcutaneously 30 minutes before administration of the antagonist. Two to four groups received 10 ml/kg of physiological sodium chloride solution (negative control) 2 hours before the naloxone administration intravenously. The remaining groups received DSIP in various dosages (0.01, 0.015, 0.03, 0.06 and 0.1 mg/kg, intravenously and 0.03, 0.1 and 0.3 mg/kg, subcutaneously) 2 hours before the naloxone administration. The dosage median values and, respectively, control median values were calculated from all individual values per dosage and, respectively, the positive and negative controls.

[6] = maximum dosage (6 mg/kg i.v. daily for 4 weeks)

WAGGDASGE [DSIP, Trp--Ala--Gly--Gly--Asp--Ala--Ser--Gly--Glu]
Tolerance of the dosages (side effects) (rats [1]): tolerated without any side effects
Local tolerance at the injection sites (rats [1]; iv): excellent
Tolerance of the dosages (side effects) (dogs [2]): tolerated without any side effects
Local tolerance at the injection sites (dogs [2]; iv): excellent
Histological analysis of about 30 organs and of the injection sites (dogs [3]; i.v. daily for 4 weeks): not the slightest evidence of damage to organs
Changes in the electrocardiogram (dogs [3]; [6]): no changes in the electrocardiogram
Hematological, hematochemical and urine values (dogs [3]; [6]): within the physiological limits
Tolerance of DSIP: poor, number of patients [4]: 2 patients
Histological analysis of about 30 organs and of the injection sites (rats [5]; i.v. daily for 4 weeks): not the slightest evidence of damage to organs
Changes in the electrocardiogram (rats [5]; [6]): no changes in the electrocardiogram
Hematological, hematochemical and urine values (rats [5]; [6]): within the physiological limits

CN1CC[C@]23c4c5ccc(O)c4O[C@H]2[C@@H](O)C=C[C@H]3[C@H]1C5 [Morphine, morphine]
Leaps/animal (median) (morphine-dependent mouse; 30 minutes before naloxone 0.1 mg/kg s.c., leaps counted for 20 minutes): 43 Leaps/animal
% of a negative control (morphine-dependent mouse; 30 minutes before naloxone): 27%
